Settings in all cases: at 10 µM
For assay [1], the target named is Receptor-type tyrosine-protein kinase FLT3 (Homo sapiens) (UniProt P36888). The assay can be described thus: (§1) Selectivity interaction (KinomeScan (DiscoverX)) EUB0000666a FLT3.
Assay [2] deals with T1, Receptor-type tyrosine-protein kinase FLT3 (Homo sapiens), P36888 [N841I].
T1 sequence (whole entry): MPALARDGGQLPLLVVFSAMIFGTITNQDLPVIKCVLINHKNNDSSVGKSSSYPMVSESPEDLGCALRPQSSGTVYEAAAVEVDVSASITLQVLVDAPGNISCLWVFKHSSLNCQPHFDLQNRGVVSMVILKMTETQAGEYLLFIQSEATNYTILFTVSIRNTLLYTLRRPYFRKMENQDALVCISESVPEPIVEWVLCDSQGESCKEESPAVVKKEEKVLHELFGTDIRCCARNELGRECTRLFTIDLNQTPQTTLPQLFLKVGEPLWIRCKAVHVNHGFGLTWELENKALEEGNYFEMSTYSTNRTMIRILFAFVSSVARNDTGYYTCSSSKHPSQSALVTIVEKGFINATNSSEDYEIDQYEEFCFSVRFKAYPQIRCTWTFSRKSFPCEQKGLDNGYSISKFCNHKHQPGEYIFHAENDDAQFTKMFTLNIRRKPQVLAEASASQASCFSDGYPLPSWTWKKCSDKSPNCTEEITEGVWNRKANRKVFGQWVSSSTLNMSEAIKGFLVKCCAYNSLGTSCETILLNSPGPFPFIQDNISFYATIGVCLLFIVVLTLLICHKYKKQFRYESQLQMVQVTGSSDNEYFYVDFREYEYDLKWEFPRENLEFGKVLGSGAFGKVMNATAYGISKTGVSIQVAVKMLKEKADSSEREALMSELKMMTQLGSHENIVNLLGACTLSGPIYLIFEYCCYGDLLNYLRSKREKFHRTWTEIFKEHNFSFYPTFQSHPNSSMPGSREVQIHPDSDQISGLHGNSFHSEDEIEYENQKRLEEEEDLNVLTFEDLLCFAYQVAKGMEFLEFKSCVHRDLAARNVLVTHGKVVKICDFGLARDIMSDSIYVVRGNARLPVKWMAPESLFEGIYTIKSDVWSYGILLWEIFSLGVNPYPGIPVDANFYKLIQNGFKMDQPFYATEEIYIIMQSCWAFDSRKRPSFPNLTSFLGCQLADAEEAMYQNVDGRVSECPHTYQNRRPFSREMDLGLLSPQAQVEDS
The assay is described as §1.

Assay [3] has as its system Receptor-type tyrosine-protein kinase FLT3 (Homo sapiens), P36888 [UNDEFINED MUTATION]. Described as §1.
Assay [4] concerns T2, Receptor-type tyrosine-protein kinase FLT3 (Homo sapiens), P36888 [D835Y].
T2 sequence (whole entry): T1 sequence (whole entry) with D835Y, I841N
Described as §1.

In assay [5] the test system is T3, Receptor-type tyrosine-protein kinase FLT3 (Homo sapiens), P36888 [D835H].
T3 sequence (whole entry): T1 sequence (whole entry) with D835H, I841N
The description is as §1.

Where a chain is given by its changes, count along the chain named.

Regarding `O=C(NOC[C@H](O)CO)c1ccc(F)c(F)c1Nc1ccc(I)cc1F`, the % of control in assay [1] is 82%; in assay [2], 78%; in assay [3], 100%; in assay [4], 100%; in assay [5], 87%.
